# Assay results from US8993542B2, “Methods of treating viral infections” (priority 2008, dated 2015).
# pIC50: −log10 of the molar value.
# Key:
# HIV = assay: microbe, parasite or virus in culture; assay type: cell-based
# HIV-1IIIB = assay: Two-drug combination antiviral assay in CEM cells (CPE), MacSynergy II; assay type: cell-based; settings: in combination with CMX157, CEM-SS cells, 95% confidence
smiles,measurement,setting,value
"OC[C@@H]1CC[C@H](n2cnc3c(O)ncnc32)O1 [ddI, 2′,3′-dideoxyinosine]",pIC50,"HIV; Human immunodeficiency virus 1, PANEL 1, WT",5.26
same,pIC50,"HIV; Human immunodeficiency virus 1, PANEL 2, WT",5.25
same,pIC50,"HIV; Human immunodeficiency virus 1, PANEL 3, 6 TAMs, no 184",5.06
same,pIC50,"HIV; Human immunodeficiency virus 1, PANEL 6, 6 TAMs + 184",4.95
same,pIC50,"HIV; Human immunodeficiency virus 1, PANEL 7, 184V",5.12
same,pIC50,"HIV; Human immunodeficiency virus 1, PANEL 9, 69ins, no 184",4.65
same,pIC50,"HIV; Human immunodeficiency virus 1, PANEL 12, 69ins + 184",4.61
same,pIC50,"HIV; Human immunodeficiency virus 1, PANEL 14, 65R, no 184",5.04
same,pIC50,"HIV; Human immunodeficiency virus 1, PANEL 15, 65R + 184V",4.84
same,pIC50,"HIV; Human immunodeficiency virus 1, PANEL 17, L74V",5.05
same,pIC50,"HIV; Human immunodeficiency virus 1, PANEL 19, L74V + M184V",4.96
same,pIC50,"HIV; Human immunodeficiency virus 1, PANEL 26, 151M, no 184",4.20
same,pIC50,"HIV; Human immunodeficiency virus 1, PANEL 28, 151M + 184",4.24
same,pIC50,"HIV; Human immunodeficiency virus 1, PANEL 29, L74V − SDM",5.09
same,pIC50,"HIV; Human immunodeficiency virus 1, PANEL 30, M184V − SDM",5.17
same,pIC50,"HIV; Human immunodeficiency virus 1, PANEL 31, K65R − SDM",4.96
same,pIC50,"HIV; Human immunodeficiency virus 1, PANEL 33, T215Y",5.20
same,pIC50,"HIV; Human immunodeficiency virus 1, PANEL 34, T215Y + M184V",5.10
same,pIC50,"HIV; Human immunodeficiency virus 1, PANEL 35, M41L + T215Y",5.20
same,pIC50,"HIV; Human immunodeficiency virus 1, PANEL 37, M41L + T215Y + M184V",4.99
same,pIC50,"HIV; Human immunodeficiency virus 1, PANEL 38, M41L + L210W + T215Y",5.12
same,pIC50,"HIV; Human immunodeficiency virus 1, PANEL 39, M41L + L210W + T215Y",5.23
same,pIC50,"HIV; Human immunodeficiency virus 1, PANEL 40, M41L + L210W + T215Y + M184V",5.09
same,pIC50,"HIV; Human immunodeficiency virus 1, PANEL 41, M41L + L210W + T215Y + M184V",5.06
same,pIC50,"HIV; Human immunodeficiency virus 1, PANEL 42, D67N + K70R",5.18
same,pIC50,"HIV; Human immunodeficiency virus 1, PANEL 44, D67N + K70R + T215F + K219E + M184V",5.06
same,pIC50,"HIV; Human immunodeficiency virus 1, PANEL 45, L210W + T215Y",5.26
same,pIC50,"HIV; Human immunodeficiency virus 1, PANEL 46, D67N + K70E",5.11
same,pIC50,"HIV; Human immunodeficiency virus 1, PANEL 47, D67N + K70E + M184V",5.14
same,pIC50,"HIV; Human immunodeficiency virus 1, PANEL 48, K70E + M184V",5.00
same,IC50 Fold Change,"HIV; PANEL 1, WT",1.01
same,IC50 Fold Change,"HIV; PANEL 2, WT",1.01
same,IC50 Fold Change,"HIV; PANEL 3, 6 TAMs, no 184",1.59
same,IC50 Fold Change,"HIV; PANEL 6, 6 TAMs + 184",2.06
same,IC50 Fold Change,"HIV; PANEL 7, 184V",1.38
same,IC50 Fold Change,"HIV; PANEL 9, 69ins, no 184",4.04
same,IC50 Fold Change,"HIV; PANEL 12, 69ins + 184",4.43
same,IC50 Fold Change,"HIV; PANEL 14, 65R, no 184",1.67
same,IC50 Fold Change,"HIV; PANEL 15, 65R + 184V",2.61
same,IC50 Fold Change,"HIV; PANEL 17, L74V",1.63
same,IC50 Fold Change,"HIV; PANEL 19, L74V + M184V",2.01
same,IC50 Fold Change,"HIV; PANEL 26, 151M, no 184",12.00
same,IC50 Fold Change,"HIV; PANEL 28, 151M + 184",11.00
same,IC50 Fold Change,"HIV; PANEL 29, L74V − SDM",1.48
same,IC50 Fold Change,"HIV; PANEL 30, M184V − SDM",1.23
same,IC50 Fold Change,"HIV; PANEL 31, K65R − SDM",2.00
same,IC50 Fold Change,"HIV; PANEL 33, T215Y",1.14
same,IC50 Fold Change,"HIV; PANEL 34, T215Y + M184V",1.43
same,IC50 Fold Change,"HIV; PANEL 35, M41L + T215Y",1.14
same,IC50 Fold Change,"HIV; PANEL 37, M41L + T215Y + M184V",1.84
same,IC50 Fold Change,"HIV; PANEL 38, M41L + L210W + T215Y",1.36
same,IC50 Fold Change,"HIV; PANEL 39, M41L + L210W + T215Y",1.07
same,IC50 Fold Change,"HIV; PANEL 40, M41L + L210W + T215Y + M184V",1.49
same,IC50 Fold Change,"HIV; PANEL 41, M41L + L210W + T215Y + M184V",1.57
same,IC50 Fold Change,"HIV; PANEL 42, D67N + K70R",1.19
same,IC50 Fold Change,"HIV; PANEL 44, D67N + K70R + T215F + K219E + M184V",1.57
same,IC50 Fold Change,"HIV; PANEL 45, L210W + T215Y",1.00
same,IC50 Fold Change,"HIV; PANEL 46, D67N + K70E",1.41
same,IC50 Fold Change,"HIV; PANEL 47, D67N + K70E + M184V",1.32
same,IC50 Fold Change,"HIV; PANEL 48, K70E + M184V",1.80
same,"Antagonism Volume, Result 1",HIV-1IIIB,"−1.01 nM^2 %, μM^2 % or nMμM %"
same,"Synergy Volume, Result 1",HIV-1IIIB,"3.38 nM^2 %, μM^2 % or nMμM %"
